In US8283353B2, “Fused ring compound and use thereof” (Takeda Pharmaceutical Company Limited, priority 2009, dated 2012):

Experiments:
human AT1 receptor = molecular target: T1, human AT1 receptor (Homo sapiens, UniProt P30556); assay: AT1 receptor antagonistic activity: [125I]-angiotensin II binding assay on human AT1 receptor-expressing CHO-K1 cellular membrane fraction; details: 22.5 pM [125I]-angiotensin II, 1 hr room temperature
T1 construct: expressed in transfected cells; membrane fraction
T1 sequence (P30556 1-359): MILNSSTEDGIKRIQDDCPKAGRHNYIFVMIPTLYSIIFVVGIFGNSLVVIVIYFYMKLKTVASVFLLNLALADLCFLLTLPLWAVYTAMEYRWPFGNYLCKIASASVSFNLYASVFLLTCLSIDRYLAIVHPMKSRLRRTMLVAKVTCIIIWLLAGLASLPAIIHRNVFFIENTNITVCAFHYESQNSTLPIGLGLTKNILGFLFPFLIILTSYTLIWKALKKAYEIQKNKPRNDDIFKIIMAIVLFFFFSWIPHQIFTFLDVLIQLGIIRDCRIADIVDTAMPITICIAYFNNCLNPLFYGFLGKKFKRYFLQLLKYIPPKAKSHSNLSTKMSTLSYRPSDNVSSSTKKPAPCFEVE
Procedure, shortened: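 Competition binding used radiolabelled angiotensin II on stably transfected CHO-K1 membrane fractions in Tris pH 7.4/MgCl2 buffer, optionally containing 0.3 mg/mL fatty acid-free BSA, 1 hr at room temperature. Filtration onto GF/C separated bound tracer, and nonspecific binding was measured with candesartan.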

human PPARγ = molecular target: T2, human PPARγ (Homo sapiens, UniProt P37231); assay: PPARγ agonistic activity: luciferase reporter assay in PPARγ:RXRα:4ERPP/CHO-K1 cells; format: cell-based; details: CHO-K1, test compound 10^−6 M; luciferase activity of control compound X (1 μM) = 100%, non-administration group = 0%
T2 construct: expressed in transfected cells
T2 sequence (P37231 1-477 isoform P37231-2): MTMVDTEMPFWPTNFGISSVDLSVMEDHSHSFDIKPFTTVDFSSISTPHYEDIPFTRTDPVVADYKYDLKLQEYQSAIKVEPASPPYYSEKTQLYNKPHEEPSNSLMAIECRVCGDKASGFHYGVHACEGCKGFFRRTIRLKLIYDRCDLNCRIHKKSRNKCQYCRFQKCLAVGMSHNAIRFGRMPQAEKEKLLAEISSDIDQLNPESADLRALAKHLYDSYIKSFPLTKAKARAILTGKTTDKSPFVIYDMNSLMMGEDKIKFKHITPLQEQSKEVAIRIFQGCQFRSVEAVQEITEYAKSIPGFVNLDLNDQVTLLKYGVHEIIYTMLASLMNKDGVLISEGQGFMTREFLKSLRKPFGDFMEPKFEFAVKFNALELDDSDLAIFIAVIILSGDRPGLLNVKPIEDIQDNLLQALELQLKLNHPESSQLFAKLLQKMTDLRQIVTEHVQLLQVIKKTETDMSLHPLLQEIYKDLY
T2 sequence (P19793 1-462 partner): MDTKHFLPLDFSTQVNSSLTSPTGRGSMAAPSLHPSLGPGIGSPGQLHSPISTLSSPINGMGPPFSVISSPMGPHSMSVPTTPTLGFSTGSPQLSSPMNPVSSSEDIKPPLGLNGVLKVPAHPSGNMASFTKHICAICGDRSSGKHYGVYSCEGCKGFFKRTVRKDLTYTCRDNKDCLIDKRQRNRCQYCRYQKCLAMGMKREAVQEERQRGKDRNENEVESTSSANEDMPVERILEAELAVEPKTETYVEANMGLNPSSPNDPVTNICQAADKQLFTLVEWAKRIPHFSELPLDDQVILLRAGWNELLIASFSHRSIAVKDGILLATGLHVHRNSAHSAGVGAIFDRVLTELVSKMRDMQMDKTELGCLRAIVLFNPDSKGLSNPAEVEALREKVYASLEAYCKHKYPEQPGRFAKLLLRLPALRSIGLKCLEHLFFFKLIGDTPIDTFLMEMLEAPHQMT
Procedure, shortened: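 Activity is expressed relative to untreated cells (0%) and 1 μM reference compound X (100%), from luciferase luminescence. Reporter line: PPARγ:RXRα:4ERPP/CHO-K1, exposed to compound for one day at 37 °C in F12 medium containing 0.1% fatty-acid-free BSA.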

Compound	IC50 (human AT1 receptor) [nM]	activation at 1 µM (human PPARγ) [%]
CCCc1c(Cc2ccc(-c3ccccc3-c3noc(=O)[nH]3)cc2F)c(=O)n([C@H]2C[C@H](OCC(C)(C)O)C2)c2ncnn12 [Example 367, 6-{[3-fluoro-2′-(5-oxo-4,5-dihydro-1,2,4-oxadiazol-3-yl)biphenyl-4-yl]methyl}-4-[trans-3-(2-hydroxy-2-methylpropoxy)cyclobutyl]-7-propyl[1,2,4]triazolo[1,5-a]pyrimidin-5(4H)-one]	2.2	25
CCCc1c(Cc2ccc(-c3ccccc3-c3noc(=O)[nH]3)cc2F)c(=O)n([C@H]2CC[C@](C)(OCC(C)(C)O)CC2)c2nc(C)nn12 [Example 368, 6-{[3-fluoro-2′-(5-oxo-4,5-dihydro-1,2,4-oxadiazol-3-yl)biphenyl-4-yl]methyl}-4-[trans-4-(2-hydroxy-2-methylpropoxy)-4-methylcyclohexyl]-2-methyl-7-propyl[1,2,4]triazolo[1,5-a]pyrimidin-5(4H)-one]	2.2	19
CCCc1c(Cc2ccc(-c3ccccc3-c3noc(=O)[nH]3)cc2F)c(=O)n([C@H]2CC[C@H](OC(C)C3(O)CCC3)CC2)c2ncnn12 (stereo partly drawn) [Example 371, 6-{[3-fluoro-2′-(5-oxo-4,5-dihydro-1,2,4-oxadiazol-3-yl)biphenyl-4-yl]methyl}-4-{trans-4-[1-(1-hydroxycyclobutyl)ethoxy]cyclohexyl}-7-propyl[1,2,4]triazolo[1,5-a]pyrimidin-5(4H)-one]	2.1	33
CCCc1c(Cc2ccc(-c3ccccc3-c3noc(=O)[nH]3)cc2)c(=O)n(C2CCN(Cc3ccccc3)CC2)c2ncnn12 [Example 373, 4-(1-benzylpiperidin-4-yl)-6-{[2′-(5-oxo-4,5-dihydro-1,2,4-oxadiazol-3-yl)biphenyl-4-yl]methyl}-7-propyl[1,2,4]triazolo[1,5-a]pyrimidin-5(4H)-one]	3.2	16
CCCc1c(Cc2ccc(-c3ccccc3-c3noc(=O)[nH]3)cc2)c(=O)n(C2CCN(c3ccc(O)cc3)CC2)c2ncnn12 [Example 382, 4-[1-(4-hydroxyphenyl)piperidin-4-yl]-6-{[2′-(5-oxo-4,5-dihydro-1,2,4-oxadiazol-3-yl)biphenyl-4-yl]methyl}-7-propyl[1,2,4]triazolo[1,5-a]pyrimidin-5(4H)-one]	2.9	35
CCCc1c(Cc2ccc(-c3ccccc3-c3noc(=O)[nH]3)cc2)c(=O)n([C@H]2CC[C@H](OCC(C)=O)CC2)c2ccnn12 [Example 420, 6-{[2′-(5-oxo-4,5-dihydro-1,2,4-oxadiazol-3-yl)biphenyl-4-yl]methyl}-4-[trans-4-(2-oxopropoxy)cyclohexyl]-7-propylpyrazolo[1,5-a]pyrimidin-5(4H)-one]	2.2	21
CCCc1c(Cc2ccc(-c3ccccc3-c3noc(=O)[nH]3)cc2)c(=O)n([C@H]2CC[C@H](OCC3(O)CC3)CC2)c2ccnn12 [Example 427, 4-{trans-4-[(1-hydroxycyclopropyl)methoxy]cyclohexyl}-6-{[2′-(5-oxo-4,5-dihydro-1,2,4-oxadiazol-3-yl)biphenyl-4-yl]methyl}-7-propylpyrazolo[1,5-a]pyrimidin-5(4H)-one]	1.9	18
CCCCc1c(Cc2ccc(-c3ccccc3-c3noc(=O)[nH]3)cc2)c(=O)n([C@H]2CC[C@H](OCC(C)(C)O)CC2)c2ccnn12 [Example 434, 7-butyl-4-[trans-4-(2-hydroxy-2-methylpropoxy)cyclohexyl]-6-{[2′-(5-oxo-4,5-dihydro-1,2,4-oxadiazol-3-yl)biphenyl-4-yl]methyl}pyrazolo[1,5-a]pyrimidin-5(4H)-one]	2.1	25
CCCc1c(Cc2ccc(-c3ccccc3-c3noc(=O)[nH]3)cc2F)c(=O)n([C@H]2CC[C@H](OCC(C)(C)O)CC2)c2ccnn12 [Example 435, 6-{[3-fluoro-2′-(5-oxo-4,5-dihydro-1,2,4-oxadiazol-3-yl)biphenyl-4-yl]methyl}-4-[trans-4-(2-hydroxy-2-methylpropoxy)cyclohexyl]-7-propylpyrazolo[1,5-a]pyrimidin-5(4H)-one]	1.7	30
CCCc1c(Cc2ccc(-c3ccccc3-c3noc(=O)[nH]3)cc2)c(=O)n([C@H]2CC[C@H](OCC(C)(C)O)CC2)c2c(F)cnn12 [Example 442, 3-fluoro-4-[trans-4-(2-hydroxy-2-methylpropoxy)cyclohexyl]-6-{[2′-(5-oxo-4,5-dihydro-1,2,4-oxadiazol-3-yl)biphenyl-4-yl]methyl}-7-propylpyrazolo[1,5-a]pyrimidin-5(4H)-one]	2	22
CCCCc1c(Cc2ccc(-c3ccccc3-c3nnn[nH]3)cc2F)c(=O)n([C@H]2CC[C@H](OCC(C)(C)O)CC2)c2ncnn12 [Example 457, 7-butyl-6-{[3-fluoro-2′-(1H-tetrazol-5-yl)biphenyl-4-yl]methyl}-4-[trans-4-(2-hydroxy-2-methylpropoxy)cyclohexyl][1,2,4]triazolo[1,5-a]pyrimidin-5(4H)-one]	1.8	19

Second part, the compound after the results:

IC50 (human AT1 receptor) [nM]	activation at 1 µM (human PPARγ) [%]	Compound
1.2	19	CCCc1c(Cc2ccc(-c3ccccc3-c3noc(=O)[nH]3)cc2)c(=O)n(C2CCC(C(C)(C)O)CC2)c2ncnn12 (centres unmarked) [Example 376, 4-[4-(1-hydroxy-1-methylethyl)cyclohexyl]-6-{[2′-(5-oxo-4,5-dihydro-1,2,4-oxadiazol-3-yl)biphenyl-4-yl]methyl}-7-propyl[1,2,4]triazolo[1,5-a]pyrimidin-5(4H)-one]
2.2	34	CCCc1c(Cc2ccc(-c3ccccc3-c3noc(=O)[nH]3)cc2)c(=O)n([C@H]2CC[C@H](OCC(C)O)CC2)c2ncnn12 (stereo partly drawn) [Example 379, 4-[trans-4-(2-hydroxypropoxy)cyclohexyl]-6-{[2′-(5-oxo-4,5-dihydro-1,2,4-oxadiazol-3-yl)biphenyl-4-yl]methyl}-7-propyl[1,2,4]triazolo[1,5-a]pyrimidin-5(4H)-one]
2	23	CCCc1c(Cc2ccc(-c3ccccc3-c3noc(=O)[nH]3)cc2)c(=O)n([C@H]2CC[C@](C)(OCC(C)(C)O)CC2)c2ncnn12 [Example 385, 4-[trans-4-(2-hydroxy-2-methylpropoxy)-4-methylcyclohexyl]-6-{[2′-(5-oxo-4,5-dihydro-1,2,4-oxadiazol-3-yl)biphenyl-4-yl]methyl}-7-propyl[1,2,4]triazolo[1,5-a]pyrimidin-5(4H)-one]
3.1	28	CCCc1c(Cc2ccc(-c3ccccc3-c3noc(=O)[nH]3)cc2)c(=O)n([C@H]2CC[C@]3(CCC(CO)O3)CC2)c2ncnn12 (stereo partly drawn) [Example 391, 4-[(5S,8S)-2-(hydroxymethyl)-1-oxaspiro[4.5]dec-8-yl]-6-{[2′-(5-oxo-4,5-dihydro-1,2,4-oxadiazol-3-yl)biphenyl-4-yl]methyl}-7-propyl[1,2,4]triazolo[1,5-a]pyrimidin-5(4H)-one]
2.2	20	CCCc1c(Cc2ccc(-c3ccccc3-c3noc(=O)[nH]3)cc2)c(=O)n([C@H]2CC[C@@]3(CCC(CO)O3)CC2)c2ncnn12 (stereo partly drawn) [Example 392, 4-[(5R,8R)-2-(hydroxymethyl)-1-oxaspiro[4.5]dec-8-yl]-6-{[2′-(5-oxo-4,5-dihydro-1,2,4-oxadiazol-3-yl)biphenyl-4-yl]methyl}-7-propyl[1,2,4]triazolo[1,5-a]pyrimidin-5(4H)-one]
